Measured values from US9745357B2, “Peptides used for treating cancers and, in particular, chronic lymphoid leukaemia” (Centre National de la Recherche Scientifique, priority 2009, dated 2017).
Like-named read-outs stand apart in the source and are kept apart here. No end group written: not given here.

Columns and labels:
[1] = system: B lymphocytes from patients suffering from chronic lymphoid leukemia (CLL); conditions: for IC50: read-out: IC50 (concentration of peptide causing the death of 50% of the cells), after 24 H
Protocol: Peripheral blood B lymphocytes taken from patients suffering from CLL and then purified on a Ficoll cushion and placed in culture are incubated in the presence of […] of the peptides described for FIG. 2. The percentage cell survival after 4 hours (gray column) or 24 hours (white column) of culture corresponds to the percentage of cells labeled neither with annexin nor with propidium iodide, evaluated by flow cytometry.
The CLL B lymphocytes were obtained from peripheral blood of 18 different patients suffering from chronic lymphoid leukemia. […] The samples were taken in the Brest hospital center, in the hematology department. The blood samples were taken after informing the patients and obtaining their informed consent.
The lymphocytes, mononuclear cells, were isolated from the heparinized peripheral blood samples by Ficoll-Hypaque (LSM 1077 lymphocyte, euro-bio) centrifugation. The red blood cells were lyzed by incubation for 10 min in VersaLyse Lysing Solution (Beckman Coulter). The mononuclear cells are obtained after 2 washes in culture medium (RPMI1640, Gibco BRL).
(§1) The cells were cultured in a culture medium composed either of RPMI 1640 (B lymphocytes) or of DMEM (COS7, HCT116, HGT1, 293, HeLa) containing 10% of FCS (fetal calf serum, 1% of penicillin-streptomycin and 1% of glutamine, Gibco BRL). The cells are distributed in a 24-well plate and cultured at 37° C. in a humid atmosphere under 5% CO2.
(§2) 400 μl of cell suspension (1×10^6 cells/ml) per well were treated for 4 h or 24 h with various concentrations of peptides. The test for activity of the peptides in the presence of emetine (FIG. 6) was carried out by preincubating the cells with 100 μM of emetine for one hour before the addition of peptide.
(§3) After the cells have been washed with PBS, they were analyzed using the Annexin V-FITC IP system according to the supplier's recommendations (Beckman Coulter).
The cells taken from patients suffering from chronic lymphoid leukemia were purified on a Ficoll cushion. […] The cells were placed in culture in RPMI medium in the presence of 10% FCS (fetal calf serum). The peptides were added directly to the culture medium. These peptides comprise the IRS sequence (the amino acid sequence of which is RYIRS) which is known to allow the penetration of peptides into B lymphocytes in culture (Dong et al., 2005). […] The cells which survive the treatment are those which are labeled neither with annexin nor with propidium iodide.

[2] = system: control T lymphocytes (patients suffering from hemochromatosis); assay: Cell survival of control T lymphocytes, annexin/propidium iodide flow cytometry; format: cell-based, human
Protocol: (§4) FIG. 7: Activity of the A1WT peptide on cells of lymphocytic, lymphoid, gastric, colonic or renal origin The cells are prepared and placed in culture (see Materials and Methods) and then incubated for 4 H with the A1WT or A1 YALA peptide. The percentage cell survival corresponds to the percentage of cells labeled neither with annexin nor with propidium iodide, evaluated by flow cytometry. The names of the pathological conditions from which the patients from whom the samples are taken are suffering are indicated under the figure. The control T (L.T.) and B (L.B.) lymphocytes are taken from patients suffering from a disease not related to a lymphocytic pathological condition (hemochromatosis).
The control B lymphocytes and T lymphocytes originate from peripheral blood samples from patients suffering from hemochromatosis, provided by the CTS transfusion center in Brest. The B and T lymphocytes were isolated using the Rosett-Sep kit (Stemcell Technologies) according to the supplier's recommendations.
as §1, §2, §3

[3] = system: acute myeloid leukemia (AML) cells; format: cell-based, human; conditions: 4 h, 40 μM
Protocol: as §4, §1
400 μl of cell suspension (1×10^6 cells/ml) per well were treated for 4 h or 24 h with various concentrations of peptides. […]
After the cells have been washed with PBS, they were analyzed using the Annexin V-FITC IP system according to the supplier's recommendations (Beckman Coulter). […]

[4] = system: HGT1 cell line derived from a gastric cancer; format: cell-based; conditions: 4 h, 40 μM
Protocol: as §4, §1, §2, §3

[5] = system: cells derived from a human colon cancer (HCT116); format: cell-based; conditions: 4 h, 40 μM
Protocol: as §4, §1, §2, §3

[6] = system: cells derived from a simian kidney cancer (COS7); format: cell-based; conditions: 4 h, 40 μM
Protocol: as §4, §1, §2, §3

[7] = system: HeLa cells (cervical cancer); assay: Cell survival of HeLa cells, Syto 13/propidium iodide fluorescence microscopy; format: cell-based; conditions: one hour incubation, various concentrations; FIG. 10
Protocol: (§5) The cells cultured in glass-bottomed multiwell plates are incubated for one hour with the A1WT or A1 YALA peptide at the concentrations indicated on the figure. The percentage cell survival is obtained by calculating the ratio between the cells stained with Syto 13 and those stained with propidium iodide (see Materials and Methods).
(§6) The analyses were carried out on a Zeiss Observer Z1 epifluorescence microscope. The cells are cultured in a glass-bottomed multiwell plate, propidium iodide and Syto13 (Invitrogen) are added to the medium at a concentration of 1 mg/ml and 5 μM, respectively. The Syto 13 binds to the DNA in the nuclei of the cells which then emit a green fluorescence. When the membrane permeability is modified during the cell death process, the propidium iodide penetrates the cell and causes the appearance of a red fluorescence when it binds to the DNA of the cell nuclei. The ratio between the number of nuclei emitting a green fluorescence and the number of nuclei emitting a red fluorescence represents the fraction of live cells expressed as percentage cell survival in the figures.

[8] = system: 293 cells (human embryo kidney cells transformed with adenovirus 5); assay: Cell survival of 293 cells, Syto 13/propidium iodide fluorescence microscopy; format: cell-based; conditions: one hour incubation, various concentrations; FIG. 10
Protocol: as §5, §6

[9] = 40 μM peptide, 4 hours of culture, cells not labeled with annexin or propidium iodide

RRKYGRDFLLRFRYIRS [A1 WT IRS, RRKYGRDFLLRFRYIRS]
cell survival, peptide in the presence of emetine ([1]; 40 μM peptide after 1 h preincubation with 100 μM emetine, 4 H (from 97%), FIG. 6): 27%
cell effect CLL 40 (survival) [1, 9]: + (+: survival <25%)
change of the effect on survival over time ([1]; 40 μM, 1 H, 2 H, 4 H and 24 H, FIG. 4): no longer active after 4 H of incubation
effect of the peptide on cell mortality, in words (relative to A1 WT IRS) ([1]; 40 μM, 4 hours, FIG. 9): high cell mortality
cell survival rate compared with cells incubated without peptide ([1]; 4 H of incubation with 20 μM of peptide, FIG. 8): less than 65%
IC50 ([1]; batch of cells from a second patient): 24 µM
IC50 ([1]; first patient, FIG. 5): ~28 µM
cell effect LT 40 (survival) [2, 9]: + (+: survival <25%)
survival rate ([2]; after 4 H of incubation with 40 μM, FIG. 7): 38%
survival rate [3]: 38%
cell survival [4]: more than 88%
cell survival [5]: 94%
cell survival [6]: 90%
effect on cell survival [7]: high sensitivity
effect on cell survival [8]: dose-dependent effect
